Measured values: ChEMBL document CHEMBL1126516, “Synthesis, biological activity and electrostatic properties of 3-[2-(dimethylamino)ethyl]-5-[(3-amino-1,2,4-thiadiazol-5-yl)methyl]-1H-indole, a novel 5-HT1D receptor agonist” (Bioorg Med Chem Lett, 1993)

Species: Oryctolagus cuniculus
Test: Compound was tested for the contraction of New Zealand white rabbit saphenous vein
Type: functional

Q: For NCCc1c[nH]c2ccc(O)cc12 [SEROTONIN], which EC50 is on record?
A: 158 nM

Q: With CN(C)CCc1c[nH]c2ccc(Cc3nc(N)ns3)cc12 as the compound, how does the EC50 read?
A: 10 nM

Q: For CN(C)CCc1c[nH]c2ccc(Cc3nc(N)no3)cc12, which EC50 is on record?
A: 501 nM

Q: Which EC50 does the source give for CNS(=O)(=O)Cc1ccc2[nH]cc(CCN(C)C)c2c1 here?
A: 631 nM
